Source: US20230067406A1, “Herbicide Combinations Comprising Glufosinate and Flumioxazin” (BASF SE, priority 2020, published 2023)

Tested on: Kochia (Bassia scoparia)
Test: Greenhouse post emergence treatment, herbicidal activity by visual control on a 0 to 100 scale
Type: in vivo
Conditions: scale 0 to 100, mean of three replications
Excerpt: Synergism can be described as an interaction where the combined effect of two or more compounds is greater than the sum of the individual effects of each of the compounds. The presence of a synergistic effect in terms of percent control, between two mixing partners (X and Y) can be calculated using the Colby equation (Colby, S. R., 1967, Calculating Synergistic and Antagonistic Responses in Herbicide Combinations, Weeds, 15, 21-22):
When the observed combined control effect is greater than the expected (calculated) combined control effect (E), then the combined effect is synergistic.
Weed included Kochia (Bassia scoparia). However, the herbicidal effect afforded by the compounds, mixtures or compositions is not limited to these species. The analysis of synergism or antagonism between the mixtures or compositions was determined using Colby's equation. • Test Method: […]
Pots with 0.3 L of volume were filled with soil (SunGroco Horticulture, Agawam, MA 01001) to grow one plant per pot in the greenhouse until the desired developmental stage.
Environmental conditions inside the greenhouse were setup for 25° C., 75% relative humidity, and 12 h light day-1 with natural sunlight or 500 μmol m−1 s−1 PAR for cloudy days. […]
The test period extended to 2 to 21 days after treatment. During this time, the plants were tended, and their response to the individual treatments was evaluated. […]

SMILES	Herbicidal activity against Kochia (21 DAT), Found (Glufosinate 420 g ai/ha alone)	Herbicidal activity against Kochia (21 DAT), Found (Flumioxazin 2.5 g ai/ha alone)
CP(=O)(O)CCC(N)C(=O)O (racemic) [Glufosinate, (2RS)-2-amino-4-[hydroxy(methyl)phosphinoyl]butyric acid]	25	–
C#CCN1C(=O)COc2cc(F)c(N3C(=O)C4=C(CCCC4)C3=O)cc21 [Flumioxazin, flumioxazin]	–	4
